Experimental data from patent US11084826B2, “RSV antiviral pyrazolo- and triazolo-pyrimidine compounds” (Janssen Sciences Ireland Unlimited Company, priority 2015, dated 2021).

Tests used:
rgRSV224 virus = assay: Antiviral activity: inhibition of rgRSV224 (GFP-expressing RSV) replication in HeLa cells, GFP expression read-out; type: cell-based, respiratory syncytial virus (RSV); conditions: human respiratory syncytial virus, HeLa, read-out: RSV HELA pEC50, rgRSV224 virus (MOI=1) in HeLa cells, GFP read-out (converted)
Procedure: (§1) Black 384-well clear-bottom microtiter plates (Corning, Amsterdam, The Netherlands) were filled via acoustic drop ejection using the echo liquid handler (Labcyte, Sunnyvale, Calif.). 200 nL of compound stock solutions (100% DMSO) were transferred to the assay plates. 9 serial 4-fold dilutions of compound were made, creating per quadrant the same compound concentration. The assay was initiated by adding 10 μL of culture medium to each well (RPMI medium without phenol red, 10% FBS-heat inactivated, 0.04% gentamycin (50 mg/mL). All addition steps are done by using a multidrop dispenser (Thermo Scientific, Erembodegem, Belgium). Next, rgRSV224 virus (MOI=1) diluted in culture medium was added to the plates. rgRSV224 virus is an engineered virus that includes an additional GFP gene (Hallak LK, Spillmann D, Collins PL, Peeples Me. Glycosaminoglycan sulfation requirements for respiratory syncytial virus infection; Journal of virology (2000), 74(22), 10508-13) and was in-licensed from the NIH (Bethesda, Md., USA). Finally, 20 μL of a HeLa cell suspension (3,000 cells/well) were plated. Medium, virus- and mock-infected controls were included in each test. The wells contain 0.05% DMSO per volume. Cells were incubated at 37° C. in a 5% CO2 atmosphere. Three days post-virus exposure, viral replication was quantified by measuring GFP expression in the cells by an in house developed MSM laser microscope (Tibotec, Beerse, Belgium). The EC50 was defined as the 50% inhibitory concentration for GFP expression. In parallel, compounds were incubated for three days in a set of white 384-well microtiter plates (Corning) and the cytotoxicity of compounds in HeLa cells was determined by measuring the ATP content of the cells using the ATPlite kit (Perkin Elmer, Zaventem, Belgium) according to the manufacturer's instructions. The CC50 was defined as the 50% concentration for cytotoxicity.

[1] = Cytotoxicity in HeLa cells, ATP content measured with the ATPlite kit; type: cell-based; conditions: human, TOX HELA pCC50
Procedure: as §1

| Structure (SMILES) | EC50 (rgRSV224 virus) | CC50 at 3 days [1] | melting point |
| --- | --- | --- | --- |
| C[C@@H]1CCCCCN1C(=O)c1cc(-c2cnn(C)c2)n2nc(-c3ccc(/C=C/C(=O)O)cc3F)cc2n1 [Compound M30] | 40.7 nM | 28200 nM | 163 °C |
| CCc1cc(C(=O)N2CCCCCC2C)nc2cc(-c3ccccc3F)nn12 (stereo not shown) [Compound A4] | 1020 nM | 45700 nM | 120 to 125 °C |
| CCc1cc(C(=O)N2CCCCCN2C)nc2cc(-c3ccc(C4C[C@H]4C(=O)O)cc3F)nn12 (mixture of isomers) [Compound O12] | 174 nM | > 100000 nM | 204.71 °C |
| CCc1cc(C(=O)N2CCCCCC2C)nc2cc(-c3ccc(NC(=O)CCC(=O)N(C)C)cc3F)nn12 (stereo not shown) [Compound E28] | 117 nM | > 25100 nM | 180 to 185 °C |
| CCc1cc(C(=O)N2CCCCCC2C)nc2cc(-c3ccc(N/C(=N/C#N)NC4CC4)cc3F)nn12 (stereo not shown) [Compound B17] | 407 nM | > 25100 nM | 225 to 230 °C |
| CC1CCCCCN1C(=O)c1cc(N2CCCCC2)n2nc(-c3ccc(NC(=O)C4CC4)cc3)cc2n1 (stereo not shown) [Compound E18] | 1260 nM | > 25100 nM | 299 to 300 °C |
| CC1c2ccccc2CCN1C(=O)c1cc(N(C)C)n2nc(-c3ccc(/C=C/C(=O)O)cc3F)cc2n1 (stereo not shown) [Compound M10] | 47.9 nM | 20000 nM | 243 to 245 °C |
| CCc1cc(C(=O)N2CCc3ccccc3[C@H]2C)nc2cc(-c3ccc(-n4cc(C(=O)O)cn4)cc3F)nn12 [Compound W27] | 39.8 nM | 46800 nM | 144.43 °C |
| CCc1cc(C(=O)N2CCCCCC2C)nc2c(F)c(-c3ccc(C(N)=O)cc3F)nn12 (stereo not shown) [Compound J1] | 148 nM | > 25100 nM | 173 °C |
| C[C@@H]1c2ccccc2CCN1C(=O)c1cc(C2(C)CC2)n2nc(-c3ccc(N4CC[C@H](C(=O)O)C4)cc3F)cc2n1 [Compound W34] | 11.2 nM | 43700 nM | 162.08 °C |
| CCc1cc(C(=O)N2CCCCCC2C)nc2cc(-c3ccc(-c4ccn[nH]4)cc3F)nn12 (stereo not shown) [Compound F5] | 309 nM | > 25100 nM | 75 to 76 °C |
| CCc1cc(C(=O)N2CCCCCC2C)nc2cc(-c3ccc(N(C)C)cc3F)nn12 (stereo not shown) [Compound A6] | 724 nM | 57500 nM | 84 °C |
| CCCC(=O)Nc1ccc(-c2cc3nc(C(=O)N4CCCCCC4C)cc(CC)n3n2)cc1 (stereo not shown) [Compound E20] | 692 nM | > 25100 nM | 268 to 270 °C |
| CCc1cc(C(=O)N2CCCCCC2C)nc2cc(-c3ccc(NC(=O)CCC(=O)O)cc3F)nn12 (stereo not shown) [Compound E24] | 282 nM | > 25100 nM | 225 to 230 °C |
| CCc1cc(C(=O)N2CCCCCC2C)nc2c(Cl)c(-c3ccc(NC(=O)C4CC4)cc3F)nn12 (stereo not shown) [Compound E13] | 1480 nM | > 25100 nM | 245 to 250 °C |
| CC1CCCCCN1C(=O)c1cc(C(F)(F)F)n2nc(-c3ccc(C(N)=O)cc3F)cc2n1 (stereo not shown) [Compound I31] | 141 nM | > 25100 nM | 238 to 240 °C |
| C[C@@H]1CCCCCN1C(=O)c1cc(C2CCC2)n2nc(-c3cccc(/C=C/C(=O)O)c3F)cc2n1 [Compound M23] | 44.7 nM | > 100000 nM | 231.54 °C |
| CCc1cc(C(=O)N2CCCCC[C@H]2C)nc2cc(-c3ccc(-n4ccc(C(=O)O)n4)cc3F)nn12 [Compound W3] | 107 nM | 60300 nM | 207.63 °C |
| CNc1cc(C(=O)N2CCCCC[C@H]2C)nc2cc(-c3ccc(/C=C/C(=O)O)cc3F)nn12 [Compound M3] | 251 nM | > 25100 nM | 198 to 200 °C |
| CCc1cc(C(=O)N2CCCCCC2C)nc2cc(-c3ccc(-c4cccnc4F)cc3F)nn12 (stereo not shown) [Compound F8] | 2340 nM | > 25100 nM | 86 to 87 °C |
| CCc1cc(C(=O)N2CCc3sccc3C2C)nc2cc(-c3ccc(N4CC[C@H](C(=O)O)C4)cc3F)nn12 (single isomer, unassigned) [Compound W43] | 2.75 nM | 49000 nM | 252.56 °C |
| C=CCC(=O)Nc1ccc(-c2cc3nc(C(=O)N4CCCCCC4C)cc(CC)n3n2)c(F)c1 (stereo not shown) [Compound E5] | 138 nM | > 25100 nM | 170 to 175 °C |

| Structure (SMILES) | EC50 (rgRSV224 virus) | CC50 at 3 days [1] | melting point |
| --- | --- | --- | --- |
| CCc1cc(C(=O)N2CCCCCC2C)nc2cc(-c3ccc(-c4cnn(C)c4)cc3F)nn12 (stereo not shown) [Compound F9] | 661 nM | > 25100 nM | 65 to 67 °C |
| CCc1cc(C(=O)N2CCCCC[C@H]2C)nc2nc(-c3cccs3)nn12 (racemic) [Compound S1] | 832 nM | > 100000 nM | 162 to 163 °C |
| CCc1cc(C(=O)N2CCCCCC2C)nc2cc(-c3ccc(N/C(=N/C#N)NC4CC4)cc3)nn12 (stereo not shown) [Compound B18] | 1150 nM | > 25100 nM | 222 to 223 °C |
| CCc1cc(C(=O)N2CCCCCC2C)nc2cc(-c3ccc(NC(=O)OCCO)cc3)nn12 (stereo not shown) [Compound C6] | 537 nM | > 25100 nM | 176 to 178 °C |
| C[C@@H]1CCCCCN1C(=O)c1cc(C2(C)CC2)n2nc(-c3ccc(/C=C/C(=O)O)cc3F)cc2n1 [Compound M20] | 32.4 nM | 36300 nM | 228.12 °C |
| CCc1cc(C(=O)N2CCCCCC2C)nc2cc(-c3ccc(C#N)cc3F)nn12 (stereo not shown) [Compound H5] | 813 nM | > 25100 nM | 95 °C |
| C=CCC(=O)Nc1ccc(-c2cc3nc(C(=O)N4CCCCCC4C)cc(CC)n3n2)cc1 (stereo not shown) [Compound E21] | 603 nM | > 25100 nM | 243 to 244 °C |
| C[C@@H]1c2ccccc2CCN1C(=O)c1cc(C2CC2)n2nc(-c3ccc(C4C[C@H]4C(=O)O)cc3F)cc2n1 (single isomer, unassigned) [Compound O5] | 11 nM | 55000 nM | 222.18 °C |
| C[C@@H]1c2ccccc2CCN1C(=O)c1cc(C2CC2)n2nc(-c3cccc(/C=C/C(=O)O)c3F)cc2n1 [Compound M27] | 11.7 nM |  | 202.04 °C |
| CCc1cc(C(=O)N2CCCCC[C@H]2C)nc2cc(-c3ccc(N4CC(C(=O)O)C4)cc3F)nn12 [Compound W1] | 64.6 nM | > 25100 nM |  |
| CCc1cc(C(=O)N2CCCCC[C@H]2C)nc2cc(-c3ccc(N4CCC[C@@H](C(=O)O)C4)cc3F)nn12 [Compound W4] | 105 nM | 89100 nM |  |
| CCc1cc(C(=O)N2CCCCC[C@H]2C)nc2cc(-c3ccc(-c4ccc(C(=O)O)nc4)cc3F)nn12 [Compound F24] | 69.2 nM | 12600 nM |  |
| C[C@@H]1c2ccccc2CCN1C(=O)c1cc(C2(C)CC2)n2nc(-c3ccc(C4C[C@H]4C(=O)O)cc3F)cc2n1 (mixture of isomers) [Compound O8] | 11.7 nM | 49000 nM |  |
| CCc1cc(C(=O)N2CCCCCC2C)nc2cc(-c3ccc(-c4c[nH]cn4)cc3F)nn12 (stereo not shown) [Compound F16] | 145 nM | > 25100 nM |  |
| CC1CCCCCN1C(=O)c1cc(CC2CCCCC2)n2nc(-c3ccccc3F)cc2n1 (stereo not shown) [Compound A20] | 6310 nM | > 25100 nM |  |
| CCc1cc(C(=O)N2CCc3ccsc3C2C)nc2cc(-c3ccc(-c4ccc(C(=O)O)cn4)cc3F)nn12 (racemic) [Compound F55] | 120 nM | > 100000 nM |  |
| CCCC(C)N(CC)C(=O)c1cc(CC)n2nc(-c3ccc(C4C[C@H]4C(=O)O)cc3F)cc2n1 (mixture of isomers) [Compound O13] | 141 nM | 45700 nM |  |
| CCc1cc(C(=O)N2CCCC3(CC=CC3)C2C)nc2cc(-c3ccc(-c4ccc(C(=O)O)cn4)cc3F)nn12 (racemic) [Compound F50] | 324 nM | 60300 nM |  |
| C[C@@H]1CCCCCN1C(=O)c1cc(C2(C)CC2)n2nc(-c3cccc([C@H]4C[C@@H]4C(=O)O)c3F)cc2n1 (racemic) [Compound O9] | 110 nM | 89100 nM |  |
| CCc1cc(C(=O)N2CCn3cccc3C2C)nc2cc(-c3ccc4c(c3F)OCC(C(=O)O)=C4)nn12 (racemic) [Compound F61] | 45.7 nM | > 100000 nM |  |
| CCc1cc(C(=O)N2CCCCC[C@H]2C)nc2cc(-c3ccc(C4C[C@H]4C(=O)O)cc3F)nn12 (single isomer, unassigned) [Compound O2] | 58.9 nM | > 25100 nM |  |
| CCc1cc(C(=O)N2CCCCC[C@H]2C)nc2cc(-c3cc4ccc(C(=O)O)nc4cc3F)nn12 [Compound F33] | 91.2 nM | 66100 nM |  |
